Data as given in US20260199289A1, “USE OF GLYCOGEN METABOLISM INHIBITORS FOR THE TREATMENT OF CANCER” (THE UNIVERSITY OF VERMONT AND STATE AGRICULTURAL COLLEGE, priority 2022, published 2026).
Entries after “also recorded” stand apart in the source; their conditions may differ.

Assays:
8505C cells [1] = test: Drug synergy by coefficient of drug interaction (SRB assay); type: cell-based, human; details: for drug interaction with 6-AN (coefficient of drug interaction class): combination with 6-AN (PPP inhibition)
Method: In Vitro Cell Staining for Measuring Drug Efficacy—Thyroid cells (4.0×10^3) were seeded in 96 well plates with 100 μl CTM and allowed to adhere overnight. 100 μl of CTM containing 2× concentration of compound was overlayed in each well for 48 hours unless otherwise indicated. Each well then received 100 μl of 10% w/v cold trichloroacetic acid (Fisher) and incubated at 4° C. for 1 hour to fix the cells. Each well was rinsed 3× with DI H2O and stained with 100 μl 0.057% w/v sulforhodamine B (SRB, Sigma-Aldrich) for 30 minutes at room temperature in the dark. Wells were washed 4× with 300 μl 1% v/v acetic acid (Fisher), and remaining SRB stain was solubilized with 200 μl of 10 mM Tris buffer, pH 10.5 (Fisher). Absorbance was measured at 564 nm with a Synergy 2 Multi-Detection Microplate Reader (Agilent Technologies) and normalized to a vehicle control. Drug synergy was evaluated using the coefficient of drug interaction (CDI) formula: CDI=AB/(A×B)×100, where AB is the percent remaining cells of an indicated combination treatment, A is the average percent remaining cells of agent 1 alone, and B is the average percent remaining cells of agent 2 alone. […] Hao et al., “Effect of Lumiracoxib on Proliferation and Apoptosis of Human Nonsmall Cell Lung Cancer Cells In vitro,” Chin Med J (Engl) 121:602-607 (2008), which is hereby incorporated by reference in its entirety.

8505C tumors = test: 8505C xenograft tumor growth in nude mice; type: in vivo, mouse; details: intraperitoneal, 50 mg/kg CP-91,149, 10 mg/kg sorafenib, 6-7 days a week
Method: Ethics statement and animal modeling—All animal procedures were approved by Institutional Animal Care and Use Committee (IACUC) at the University of Vermont. All animals were maintained in pathogen-free conditions and cared for in accordance with IACUC policies and certification. All surgeries were performed with isoflurane anesthesia. Temperature-controlled post-surgical monitoring was implemented to minimize suffering. Mice carrying anaplastic thyroid tumors were euthanized at designated time points for tumor collection. Signs of ulceration or a maximum individual tumor size of 2000 mm^3 were used as a protocol-enforced endpoint.
Mice were given food and water ad libitum. […] These doses were based on previous reports.

HepG2 cells = details: HepG2 cells; cited from earlier work
ATC = details: in vitro; cited from earlier work
8505C cells [2] = test: SRB cell viability assay in ATC cells; type: cell-based, human; details: for cell viability of CP-treated cells with the exogenous agent: 8505C cells treated with CP-91,149
Method: In Vitro Cell Staining for Measuring Drug Efficacy—Thyroid cells (4.0×10^3) were seeded in 96 well plates with 100 μl CTM and allowed to adhere overnight. 100 μl of CTM containing 2× concentration of compound was overlayed in each well for 48 hours unless otherwise indicated. Each well then received 100 μl of 10% w/v cold trichloroacetic acid (Fisher) and incubated at 4° C. for 1 hour to fix the cells. Each well was rinsed 3× with DI H2O and stained with 100 μl 0.057% w/v sulforhodamine B (SRB, Sigma-Aldrich) for 30 minutes at room temperature in the dark. Wells were washed 4× with 300 μl 1% v/v acetic acid (Fisher), and remaining SRB stain was solubilized with 200 μl of 10 mM Tris buffer, pH 10.5 (Fisher). Absorbance was measured at 564 nm with a Synergy 2 Multi-Detection Microplate Reader (Agilent Technologies) and normalized to a vehicle control. Drug synergy was evaluated using the coefficient of drug interaction (CDI) formula: CDI=AB/(A×B)×100, where AB is the percent remaining cells of an indicated combination treatment, A is the average percent remaining cells of agent 1 alone, and B is the average percent remaining cells of agent 2 alone. […] Hao et al., “Effect of Lumiracoxib on Proliferation and Apoptosis of Human Nonsmall Cell Lung Cancer Cells In vitro,” Chin Med J (Engl) 121:602-607 (2008), which is hereby incorporated by reference in its entirety. […]

8505C cells [3] = test: Metabolic flux analysis (Seahorse ECAR and OCR); type: cell-based, human; details: 8505C cells
Method: Metabolic Flux Analysis—Thyroid cells (5.0×10^4) were plated in a 96 well Seahorse culture plate with compounds of interest diluted in 200 μl CTM for 24 hours. Cells were washed with PBS and equilibrated for 1 hour at 37° C. in a non-CO2 incubator with compounds of interest diluted in Seahorse RPMI (supplemented with 11.1 mM glucose, 2 mM glutamine, and 5% serum) before analysis of OCR and ECAR in a Metabolic Flux Analyzer (Seahorse Bioscience, North Billerica, MA 96XP).

8505C cells [4] = test: Reactive oxygen species quantification (H2DCFDA); type: cell-based, human; details: for ROS in CP-treated cells with the exogenous agent: 8505C cells treated with CP-91,149
Method: Quantification of Reactive Oxygen Species—Thyroid cells (1.0-2.0×10^4) were seeded in a black 96 well plate in 200 μl CTM and allowed to adhere overnight. Wells were washed with PBS and incubated with or without 25 μM H2DCFDA for 45 minutes at 37° C. in a non-CO2 incubator with compounds of interest diluted in phenol-red free RPMI (supplemented with 2 mM glutamine and 10% charcoal-stripped serum). Wells were washed with PBS and received compounds of interest diluted in phenol-red free, supplemented RPMI and incubated at 37° C. in a SpectraMax M4 Microplate Reader (Molecular Devices) to record fluorescent measurements (Ex/Em=485/535 nm) every 15 minutes overnight. Maximum fluorescence intensity was determined (~6 hours), background signal (—H2DCFDA) was subtracted from each group, and corrected values were normalized to the vehicle control.

ATC xenograft = details: cited from earlier work
[5] = tested on: Pancreatic adenocarcinoma cells; details: cited from earlier work
[6] = ATC cell viability, combination with CP-91,149

COc1cccc2c1C(=O)c1c(O)c3c(c(O)c1C2=O)C[C@@](O)(C(=O)CO)C[C@@H]3O[C@H]1C[C@H](N)[C@H](O)[C@H](C)O1 [doxorubicin]
drug interaction with CP-91,149 (coefficient of drug interaction class) (8505C cells [1]; [6]): did not achieve synergy

CC(=O)c1c(C)c2cnc(Nc3ccc(N4CCNCC4)cn3)nc2n(C2CCCC2)c1=O [palbociclib, 6-acetyl-8-cyclopentyl-5-methyl-2-[(5-piperazin-1-ylpyridin-2-yl)amino]pyrido[6,5-d]pyrimidin-7-one]
drug interaction with CP-91,149 (coefficient of drug interaction class) (8505C cells [1]; [6]): did not achieve synergy

CNC(=O)c1cc(Oc2ccc(NC(=O)Nc3ccc(Cl)c(C(F)(F)F)c3)cc2)ccn1 [sorafenib, 4-[4-[[4-chloro-3-(trifluoromethyl)phenyl]carbamoylamino]phenoxy]-N-methylpyridine-2-carboxamide]
drug interaction with 6-AN (coefficient of drug interaction class) (8505C cells [1]; 8505C cells, 48 hours): drug synergy; also recorded: synergistic | drug interaction with inhibition of glycolysis (8505C cells [1]; 8505C cells, 48 hours): not glycolysis | drug interaction with CP-91,149 (coefficient of drug interaction class) (8505C cells [1]; [6]): high degree of drug synergy; also recorded: profound drug synergy | tumor growth (8505C tumors): notably stunted | synergy with CP-91,149 (HepG2 cells): displayed synergy

CN(C)C(=N)N=C(N)N [metformin]
ATC proliferation (ATC): limit ATC proliferation in vitro

COc1cc2nccc(Oc3ccc(NC(=O)NC4CC4)c(Cl)c3)c2cc1C(N)=O [lenvatinib, 4-[3-chloro-4-(cyclopropylcarbamoylamino)phenoxy]-7-methoxyquinoline-6-carboxamide]
drug interaction with CP-91,149 (coefficient of drug interaction class) (8505C cells [1]; [6]): drug additivity rather than synergy

Nc1cc(C(F)(F)F)c(-c2cc(N3CCOCC3)nc(N3CCOCC3)n2)cn1 [buparlisib, 5-(2,6-dimorpholin-4-ylpyrimidin-4-yl)-4-(trifluoromethyl)pyridin-2-amine]
drug interaction with CP-91,149 (coefficient of drug interaction class) (8505C cells [1]; [6]): drug additivity rather than synergy

O=CC[C@@H](O)[C@H](O)[C@H](O)CO [2-DG, 2-deoxyglucose]
cell viability with excess (2 mM) pyruvate (8505C cells [2]; 8505C cells, 48 hours): could be rescued | cell viability with excess (25 mM) glucose (8505C cells [2]; 8505C cells, 48 hours): rescued cell viability | cell viability with pyruvate depletion (8505C cells [2]; 8505C cells, 48 hours): only significantly impacted the 2-DG-treated cells | extracellular acidification rate (ECAR) (8505C cells [3]): significantly inhibited | reactive oxygen species (ROS) levels (8505C cells [4]; 8505C ATC cells): only modestly increased ROS levels | ROS levels with excess glucose (8505C cells [4]; 8505C cells): only in CP-treated cells | drug interaction with 6-AN (coefficient of drug interaction class) (8505C cells [1]; 8505C cells, 48 hours): drug antagonism | CDI values in combination with CP-91,149 (8505C cells [1]; [6]): ~1.0 | drug interaction with CP-91,149 (coefficient of drug interaction class) (8505C cells [1]; [6]): drug additivity | lactate production (ATC xenograft): reduced lactate production | tumor size (ATC xenograft): failed to significantly reduce tumor size

O=C(N[C@@H](Cc1ccc(F)cc1)C(=O)N1CCC(O)CC1)c1cc2cc(Cl)ccc2[nH]1 [CP-320626, 5-chloro-N-[(2S)-3-(4-fluorophenyl)-1-(4-hydroxypiperidin-1-yl)-1-oxopropan-2-yl]-1H-indole-2-carboxamide]
cellular metabolism [5]: inhibited cellular respiration, the PPP, anaplerosis, and synthesis of ribose and fatty acids | sensitivity of cells [5]: sensitive

CC(=O)N[C@@H](CS)C(=O)O [N-acetylcysteine]
cell viability of CP-treated cells with the exogenous agent (8505C cells [2]; listed as N-acetyl cysteine): can rescue ATC cells from CP-mediated loss in cell viability | cell viability of CP-treated cells with the exogenous agent (8505C cells [2]; listed as NAC): partially rescued | ROS in CP-treated cells with the exogenous agent (8505C cells [4]): ablated | ROS in CP-treated cells with the exogenous agent (8505C cells [4]; listed as N-acetyl cysteine): attenuated

NC(=O)C1=CN([C@@H]2O[C@H](COP(=O)(O)OP(=O)(O)OC[C@H]3O[C@@H](n4cnc5c(N)ncnc54)[C@H](OP(=O)(O)O)[C@@H]3O)[C@@H](O)[C@H]2O)C=CC1 [NADPH]
cell viability of 2-DG-treated cells with the exogenous agent (8505C cells [2]; 8505C cells treated with 2-DG, 48 hours, replete media): only rescued cell viability in the CP-treated cells | cell viability of CP-treated cells with the exogenous agent (8505C cells [2]): partially rescued; also recorded: only rescued cell viability in the CP-treated cells; also recorded: can rescue ATC cells from CP-mediated loss in cell viability | ROS in 2-DG-treated cells with the exogenous agent (8505C cells [4]; 8505C cells treated with 2-DG, replete media): reduced ROS in both treatment groups | ROS in CP-treated cells with the exogenous agent (8505C cells [4]): ablated; also recorded: reduced ROS in both treatment groups; also recorded: attenuated

NC(=O)c1ccc(N)nc1 [6-AN, 6-aminonicotinamide]
drug interaction with CP-91,149 (coefficient of drug interaction class) (8505C cells [1]; [6]): remarkable drug synergy

O=C(O)C(=O)CBr [3-BP, 3-bromopyruvic acid]
drug interaction with CP-91,149 (coefficient of drug interaction class) (8505C cells [1]; [6]): failed to achieve synergy
